Results from the NIST ThermoML archive (doi:10.1021/je0500734).

Experiments:
[1] = 101.33 kPa, Liquid; for speed of sound: acoustic time of flight gauge
[2] = xn = mol fraction of the nth substance listed; conditions: 101.33 kPa, Liquid; for speed of sound: acoustic time of flight gauge

C[N+](=O)[O-] [nitromethane]
[1]
Conditions	kinematic viscosity [m2/s]	mass density [kg/m3]	speed of sound [m/s]	viscosity [mPa·s]
293.15 K	6.01e-07	1137.21	1337.6	–
295.15 K	5.77e-07	1133.14	1329.5	–
298.15 K	5.62e-07	1130.42	1317.4	–
300.15 K	5.47e-07	1127.55	1309.4	–
301.15 K	–	1126.24	1305.3	0.6091
301.3 K	–	1126.04	–	0.6074
303.15 K	5.25e-07	1123.49	1297.3	–
305.15 K	5.1e-07	1120.82	1289.2	–
306.15 K	–	1119.36	1285.2	0.5636
306.3 K	–	1119.15	–	0.5623
308.15 K	4.89e-07	1116.54	1277.1	–

[2H]OCCCCC [pentan-1-ol-d]
[1]
Conditions	mass density [kg/m3]	speed of sound [m/s]	viscosity [mPa·s]
293.15 K	821.69	1282.3	–
295.15 K	819.5	1273.7	–
298.15 K	818.04	1265.1	–
300.15 K	816.42	1258.3	–
301.3 K	815.63	–	3.118
303.15 K	814.24	1248.5	–
305.15 K	813.1	1241.1	–
306.3 K	811.88	–	2.685
308.15 K	810.47	1230.8	–

[1], Capillary tube (Ostwald / Ubbelohde) method
Conditions	kinematic viscosity [m2/s]
293.15 K	4.99e-06
295.15 K	4.458e-06
298.15 K	4.238e-06
300.15 K	3.969e-06
303.15 K	3.685e-06
305.15 K	3.456e-06
308.15 K	3.148e-06

[2H]C([2H])([2H])[N+](=O)[O-] [deuteronitromethane]
[1]
Conditions	kinematic viscosity [m2/s]	mass density [kg/m3]	speed of sound [m/s]	viscosity [mPa·s]
293.15 K	6.05e-07	1194.74	1291.1	–
295.15 K	5.81e-07	1190.43	1283.2	–
298.15 K	5.7e-07	1187.71	1271.3	–
300.15 K	5.49e-07	1184.73	1263.3	–
303.15 K	5.26e-07	1181.86	1251.4	–
303.5 K	6.27e-07	1180.03	–	0.6274
305.15 K	5.13e-07	1178.3	1243.5	–
307.5 K	5.82e-07	1172.08	–	0.5819
308.15 K	4.92e-07	1173.28	1231.6	–

CCCCCO [pentan-1-ol] + [2H]C([2H])([2H])[N+](=O)[O-]
[2], x2 = 0
Conditions	mass density [kg/m3]	viscosity [mPa·s]
303.5 K	807.33	2.997
307.5 K	803.76	2.57

C[N+](=O)[O-] [nitromethane] + [2H]OCCCCC
[2], x1 = 1
Conditions	mass density [kg/m3]	viscosity [mPa·s]
301.3 K	1126.04	0.6074
306.3 K	1119.15	0.5623

C[N+](=O)[O-] [nitromethane] + CCCCCO
[2]
Conditions	mass density [kg/m3]	speed of sound [m/s]	viscosity [mPa·s]
301.15 K, x1 = 0.065	818.89	–	–
301.15 K, x1 = 0.099	–	1258.1	–
301.15 K, x1 = 0.113	–	–	2.379
301.15 K, x1 = 0.127	828.49	–	–
301.15 K, x1 = 0.186	838.83	–	–
301.15 K, x1 = 0.202	–	1252.1	–
301.15 K, x1 = 0.203	–	–	2.119
301.15 K, x1 = 0.26	852.95	–	–
301.15 K, x1 = 0.302	–	1248.3	–
301.15 K, x1 = 0.31	863.38	–	–
301.15 K, x1 = 0.314	–	–	1.743
301.15 K, x1 = 0.398	883.3	–	1.487
301.15 K, x1 = 0.401	–	1245.4	–
301.15 K, x1 = 0.469	–	–	1.231
301.15 K, x1 = 0.502	–	1242.7	–
301.15 K, x1 = 0.503	910.3	–	–
301.15 K, x1 = 0.516	–	–	1.111
301.15 K, x1 = 0.54	920.98	–	–
301.15 K, x1 = 0.616	944.27	–	–
301.15 K, x1 = 0.619	–	1243.9	–
301.15 K, x1 = 0.62	–	–	0.9425
301.15 K, x1 = 0.699	973.7	–	–
301.15 K, x1 = 0.701	–	1247	–
301.15 K, x1 = 0.752	–	–	0.7812
301.15 K, x1 = 0.753	994.05	–	–
301.15 K, x1 = 0.801	–	–	0.7348
301.15 K, x1 = 0.802	1016.76	1258.9	–
301.15 K, x1 = 0.824	–	–	0.679
301.15 K, x1 = 0.849	–	–	0.673
301.15 K, x1 = 0.902	–	1281.2	–
301.15 K, x1 = 0.911	1070.91	–	–
301.15 K, x1 = 0.934	–	–	0.6149
301.15 K, x1 = 1	1126.24	1305.3	0.6091
306.15 K, x1 = 0.065	815.14	–	–
306.15 K, x1 = 0.099	–	1240.6	–
306.15 K, x1 = 0.113	–	–	2.009
306.15 K, x1 = 0.127	824.47	–	–
306.15 K, x1 = 0.186	834.67	–	–
306.15 K, x1 = 0.202	–	1234.6	–
306.15 K, x1 = 0.203	–	–	1.744
306.15 K, x1 = 0.26	848.61	–	–
306.15 K, x1 = 0.302	–	1230.6	–
306.15 K, x1 = 0.31	858.74	–	–
306.15 K, x1 = 0.314	–	–	1.473
306.15 K, x1 = 0.398	878.5	–	1.282
306.15 K, x1 = 0.401	–	1227.7	–
306.15 K, x1 = 0.469	–	–	1.093
306.15 K, x1 = 0.502	–	1225.5	–
306.15 K, x1 = 0.503	905.13	–	–
306.15 K, x1 = 0.516	–	–	0.9447
306.15 K, x1 = 0.54	915.83	–	–
306.15 K, x1 = 0.616	939	–	–
306.15 K, x1 = 0.619	–	1226.6	–
306.15 K, x1 = 0.62	–	–	0.7854
306.15 K, x1 = 0.699	967.99	–	–
306.15 K, x1 = 0.701	–	1230.2	–
306.15 K, x1 = 0.752	–	–	0.6945
306.15 K, x1 = 0.753	987.94	–	–
306.15 K, x1 = 0.801	–	–	0.6634
306.15 K, x1 = 0.802	1010.21	1241.7	–
306.15 K, x1 = 0.824	–	–	0.6288
306.15 K, x1 = 0.849	–	–	0.6161
306.15 K, x1 = 0.902	–	1262.1	–
306.15 K, x1 = 0.911	1064.52	–	–
306.15 K, x1 = 0.934	–	–	0.5661
306.15 K, x1 = 1	1119.36	1285.2	0.5636

CCCCCO [pentan-1-ol]
[1]
Conditions	mass density [kg/m3]	speed of sound [m/s]	viscosity [mPa·s]
293.15 K	815.09	1290.7	–
295.15 K	812.74	1282.1	–
298.15 K	811.4	1273.6	–
300.15 K	809.72	1266.7	–
301.15 K	808.96	1263.3	3.113
303.15 K	807.41	1256.4	–
303.5 K	807.33	–	2.997
305.15 K	805.78	1249.4	–
306.15 K	805.17	1246.2	2.686
307.5 K	803.76	–	2.57
308.15 K	803.71	1239.3	–

[1], Capillary tube (Ostwald / Ubbelohde) method
Conditions	kinematic viscosity [m2/s]
293.15 K	4.96e-06
295.15 K	4.444e-06
298.15 K	4.223e-06
300.15 K	3.942e-06
303.15 K	3.635e-06
305.15 K	3.45e-06
308.15 K	3.129e-06

CCCCCO [pentan-1-ol] + C[N+](=O)[O-]
[2], x2 = 0
Conditions	mass density [kg/m3]	speed of sound [m/s]	viscosity [mPa·s]
301.15 K	808.96	1263.3	3.113
306.15 K	805.17	1246.2	2.686

[2H]OCCCCC [pentan-1-ol-d] + C[N+](=O)[O-]
[2]
Conditions	mass density, 301.3 K [kg/m3]	mass density, 306.3 K [kg/m3]	viscosity, 301.3 K [mPa·s]	viscosity, 306.3 K [mPa·s]
x2 = 0	815.63	811.88	3.118	2.685
x2 = 0.07	825.73	821.85	–	–
x2 = 0.106	–	–	2.465	2.186
x2 = 0.154	839.37	835.21	–	–
x2 = 0.231	852.09	847.81	–	–
x2 = 0.245	–	–	1.937	1.678
x2 = 0.298	862.5	858.1	–	–
x2 = 0.385	879.49	873.8	–	–
x2 = 0.386	–	–	1.497	1.319
x2 = 0.503	906.93	904.01	–	–
x2 = 0.508	–	–	1.161	1.066
x2 = 0.551	920.64	917.49	–	–
x2 = 0.555	–	–	1.097	0.9975
x2 = 0.623	–	–	1.004	0.8782
x2 = 0.651	954.06	950.15	–	–
x2 = 0.679	–	–	0.9207	0.7937
x2 = 0.718	–	–	0.8419	0.729
x2 = 0.74	989.43	983.56	–	–
x2 = 0.749	–	–	0.7878	0.6974
x2 = 0.774	–	–	0.7451	0.6734
x2 = 0.847	1037.27	1031.12	–	–
x2 = 0.946	1090.5	1083.88	–	–

[2H]C([2H])([2H])[N+](=O)[O-] [deuteronitromethane] + CCCCCO
[2]
Conditions	mass density, 303.5 K [kg/m3]	mass density, 307.5 K [kg/m3]	viscosity, 303.5 K [mPa·s]	viscosity, 307.5 K [mPa·s]
x1 = 0.08	823.07	819.05	–	–
x1 = 0.103	–	–	2.46	2.158
x1 = 0.178	843.08	838.92	–	–
x1 = 0.206	–	–	2.16	1.82
x1 = 0.245	858.21	853.8	–	–
x1 = 0.302	–	–	1.796	1.517
x1 = 0.351	883.03	878.4	–	–
x1 = 0.401	896.26	891.53	–	–
x1 = 0.418	–	–	1.447	1.251
x1 = 0.49	922.6	917.6	–	–
x1 = 0.502	–	–	1.24	1.077
x1 = 0.598	–	–	1.069	0.9159
x1 = 0.615	966.2	960.5	1.033	0.8939
x1 = 0.644	–	–	1.026	0.8578
x1 = 0.669	988.3	982.16	–	–
x1 = 0.749	1024.62	1018.46	–	–
x1 = 0.758	–	–	0.7821	0.7064
x1 = 0.801	–	–	0.7859	0.6878
x1 = 0.86	1084.42	1077.9	–	–
x1 = 0.904	–	–	0.6496	0.5971
x1 = 0.959	1149.88	1142.39	–	–
x1 = 1	1180.03	1172.08	0.6274	0.5819
